# Source: patent US20180338937A1, “PHARMACEUTICAL PREPARATIONS” (Analyticon Discovery GmbH, priority 2015, published 2018)
# Columns and labels:
# [1] = cited from earlier work
# [2] = Sensory tasting of a Calpol ® solution, sip and spit, five assessors; format: in vivo, human; details: Calpol ® suspension in water, paracetamol 12.5 mg/ml, 25 μM dehydroabietic acid, 0.5% ethanol
# Description: Taste Modulation of Paracetamol in a Commercially Available Formulation The sensory evaluation of the samples was performed by a team of five experienced assessors. Details may be taken from the following Table 1: [table]
# [3] = Sensory tasting of a maltitol/paracetamol solution, sip and spit; format: in vivo, human; details: Paracetamol/maltitol syrup in water, paracetamol 12.5 mg/ml, 25 μM dehydroabietic acid, 0.5% ethanol, vs comparison sample
# Description: Taste Modulation of Paracetamol in a Maltitol Formulation The sensory evaluation of the samples was performed by a team of five experienced assessors. Details may be taken from the following Table 2: [table]
# [4] = Sensory tasting of a Nurofen ® tablet solution, sip and spit; format: in vivo, human; details: Nurofen ® tablets dissolved in water, ibuprofen 5 mg/ml, 25 μM dehydroabietic acid, 0.5% ethanol, vs comparison sample
# Description: Taste Modulation of Ibuprofen in the Form of Tablets with Lysine (Nurofen®) The sensory evaluation of the samples was performed by a team of five experienced assessors.
# [5] = Sensory tasting of a solution of a Nurofen ® suspension, sip and spit; format: in vivo, human; details: Nurofen ® suspension dissolved in water, ibuprofen 5 mg/ml, 25 μM dehydroabietic acid, 0.5% ethanol, vs comparison sample
# Description: Taste Modulation of Ibuprofen in Suspension (Nurofen®) The sensory evaluation of the samples was performed by a team of five experienced assessors.
# [6] = Sensory tasting of a solution of an ibuprofen suspension (Asda), sip and spit; format: in vivo, human; details: Ibuprofen suspension (orange taste, no sweeteners) in water, ibuprofen 5 mg/ml, 25 μM dehydroabietic acid, 0.5% ethanol, vs comparison sample
# Description: Taste Modulation of Ibuprofen in Suspension (Asda) The sensory evaluation of the samples was performed by a team of five experienced assessors. Details may be taken from the following Table 5: [table]
# [7] = Sensory tasting of a maltitol/ibuprofen solution, sip and spit; format: in vivo, human; details: Ibuprofen/maltitol syrup in water, 25 μM dehydroabietic acid, 0.5% ethanol, vs comparison sample
# [8] = Sepulveda et al., Pharmacol. Res. 52(5), 429-437 (2005); cited from earlier work
# cyclooxygenase = details: U.S. Pat. No. 6,365,634 B1 (RUSSEL); cited from earlier work
compound,measurement,setting,value
C=C1C[C@@]23CC[C@H]4[C@@](C)(CCC[C@@]4(C)C(=O)O[C@@H]4O[C@H](CO)[C@@H](O)[C@H](O)[C@H]4O)[C@@H]2CC[C@]1(O[C@@H]1O[C@H](CO)[C@@H](O)[C@H](O)[C@H]1O[C@@H]1O[C@H](CO)[C@@H](O)[C@H](O)[C@H]1O)C3 [stevioside],daily uptake considered harmless,[1],up to 4 mg stevioside per kilogramme of bodyweight
CC(C)c1ccc2c(c1)CC[C@H]1[C@](C)(C(=O)O)CCC[C@]21C [dehydroabietic acid],Evaluation of the sample: metallic taste,[2]; vs comparison sample,metallic taste reduced
same,Evaluation of the sample: bitterness,[2]; vs comparison sample without dehydroabietic acid,very significantly less bitter
same,Evaluation of the sample: aftertaste,[3],pleasant aftertaste
same,Evaluation of the sample: bitterness,[3],Bitterness reduced and delayed
same,Evaluation of the sample: taste at the beginning,[3],better taste at the beginning and more
same,Evaluation of the sample: unpleasant/metallic taste,[3],no long-lasting unpleasant/metallic taste
same,Evaluation of the sample: bitterness,[4],reduced bitterness
same,Evaluation of the sample: delayed burning sensation in the throat,[4],no change to the delayed burning
same,Evaluation of the sample: typical natural taste of ibuprofen,[5],Masking of the typical natural taste
same,Evaluation of the sample: bitterness,[6],less bitter
same,Evaluation of the sample: orange aroma,[6],intensification of the orange aroma
same,Evaluation of the sample: overall taste,[6],more pleasant taste
same,Evaluation of the sample: sweetness,[6],more sweet
same,Evaluation of the sample: aftertaste,[7]; 5 mg/ml,less unpleasant aftertaste
same,Evaluation of the sample: burning sensation on the tongue/in the throat,[7]; 5 mg/ml,alleviation of the burning sensation
same,Evaluation of the sample: mouth dryness,[7]; 5 mg/ml,reduced mouth dryness
same,Evaluation of the sample: sweetness,[7]; 5 mg/ml,slightly sweet
same,Evaluation of the sample: bitterness,[7]; ibuprofen 5 mg/ml,less bitter
same,gastroprotective properties,[8],has gastroprotective properties
same,inhibition of the cyclooxygenase,cyclooxygenase,inhibit the cyclooxygenase
